Assay results: BindingDB's records for doi:10.1016/j.bmcl.2008.02.026 (Irbm/Merck Research Laboratories, 2008)

Target: T1, Histone deacetylase 6 (Homo sapiens, UniProt Q9UBN7)
T1 sequence (Q9UBN7 whole entry): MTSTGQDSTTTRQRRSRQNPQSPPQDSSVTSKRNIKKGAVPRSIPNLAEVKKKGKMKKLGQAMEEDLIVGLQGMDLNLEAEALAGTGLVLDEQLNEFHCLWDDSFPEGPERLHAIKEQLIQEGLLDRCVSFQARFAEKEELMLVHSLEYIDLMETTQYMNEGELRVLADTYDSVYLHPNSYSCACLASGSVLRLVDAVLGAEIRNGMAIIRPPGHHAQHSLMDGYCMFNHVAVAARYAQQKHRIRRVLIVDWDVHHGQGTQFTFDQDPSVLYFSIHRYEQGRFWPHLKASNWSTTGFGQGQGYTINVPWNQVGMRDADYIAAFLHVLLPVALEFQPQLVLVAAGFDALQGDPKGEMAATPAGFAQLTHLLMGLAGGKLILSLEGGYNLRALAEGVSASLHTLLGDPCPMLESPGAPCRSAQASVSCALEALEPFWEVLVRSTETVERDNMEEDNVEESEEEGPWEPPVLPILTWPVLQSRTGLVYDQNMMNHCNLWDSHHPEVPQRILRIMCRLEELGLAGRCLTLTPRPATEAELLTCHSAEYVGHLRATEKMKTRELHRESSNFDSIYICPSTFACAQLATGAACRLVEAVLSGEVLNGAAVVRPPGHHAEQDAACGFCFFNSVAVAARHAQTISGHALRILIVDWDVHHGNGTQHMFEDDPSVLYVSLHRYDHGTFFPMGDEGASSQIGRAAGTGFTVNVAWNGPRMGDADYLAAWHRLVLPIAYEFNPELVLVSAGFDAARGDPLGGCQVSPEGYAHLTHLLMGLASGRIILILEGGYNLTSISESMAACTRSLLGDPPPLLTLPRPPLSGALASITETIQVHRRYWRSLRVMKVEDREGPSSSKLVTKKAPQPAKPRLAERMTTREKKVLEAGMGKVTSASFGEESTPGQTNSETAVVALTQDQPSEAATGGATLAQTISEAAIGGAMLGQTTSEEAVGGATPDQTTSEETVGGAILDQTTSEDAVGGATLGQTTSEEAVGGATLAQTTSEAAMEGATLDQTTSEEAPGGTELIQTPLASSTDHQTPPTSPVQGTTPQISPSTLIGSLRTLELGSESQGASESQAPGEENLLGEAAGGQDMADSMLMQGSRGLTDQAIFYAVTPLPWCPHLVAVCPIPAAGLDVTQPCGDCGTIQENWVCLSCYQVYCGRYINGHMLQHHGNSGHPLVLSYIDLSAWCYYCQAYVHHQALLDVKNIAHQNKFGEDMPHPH
Assay: HDAC Activity Assay
Conditions: 25 °C
Method: The Fluor-de-Lys HDAC activity assay kit (Biomol) was used. Purified recombinant HDAC enzyme was incubated with Fluor-de-Lys substrate in the presence of test compounds. Fluor-de-Lys Developer was then added, and the mixture was incubated for another 10 min at room temperature. Fluorescence was measured using a fluorescent plate reader, with excitation 360 nm and emission 460 nm.

NC(=O)c1ccc(C(=O)C(F)(F)F)cn1 [5-(2,2,2-trifluoroacetyl)pyridine-2-carboxamide]
IC50: 4.2 µM
